Calls of active or inactive are those of the source. The rule behind the calls is not given here.
Tests used:
[1] = test system: J774; test: Antiproliferative activity against mouse J774 cells […] after 72 hrs by MTT assay; type: functional, cell-based
[2] = test system: WEHI-164; test: Antiproliferative activity against mouse WEHI164 cells […] after 72 hrs by MTT assay; type: functional, cell-based
[3] = test system: HEK293; test: Antiproliferative activity against HEK293 cells […] after 72 hrs by MTT assay; type: cell-based; conditions: human, hek293, 72 h

Row | SMILES | Activity [1] | Activity [2] | Activity [3]
1 | C[C@@H]1[C@H]2C3=CC[C@@H]4[C@@]5(C)C[C@@H](O)[C@H](O[C@@H]6OC[C@H](O)[C@H](O[C@@H]7OC[C@@H](O)[C@H](O)[C@H]7O)[C@H]6O)[C@@](C)(CO)[C@@H]5CC[C@@]4(C)[C@]3(C)CC[C@@]2(C(=O)O[C@@H]2O[C@H](CO)[C@@H](O)[C@H](O)[C@H]2O)CC[C@]1(C)O | inactive | inactive | Not Active
2 | C[C@@H]1O[C@@H](OC[C@H]2O[C@@H](OC(=O)[C@]34CC[C@](C)(O)[C@H](C)[C@H]3C3=CC[C@@H]5[C@@]6(C)CC[C@H](O[C@@H]7OC[C@H](O)[C@H](O[C@@H]8OC[C@@H](O)[C@H](O)[C@H]8O)[C@H]7O)[C@@](C)(CO)[C@@H]6CC[C@@]5(C)[C@]3(C)CC4)[C@H](O)[C@@H](O)[C@@H]2O)[C@H](O)[C@H](O)[C@H]1O | inactive | inactive | Not Active
3 | C[C@@H]1[C@H]2C3=CC[C@@H]4[C@@]5(C)C[C@@H](O)[C@H](O[C@@H]6OC[C@H](O)[C@H](O)[C@H]6O)[C@@](C)(CO)[C@@H]5CC[C@@]4(C)[C@]3(C)CC[C@@]2(C(=O)O[C@@H]2O[C@H](CO)[C@@H](O)[C@H](O)[C@H]2O)CC[C@]1(C)O | inactive | inactive | Not Active
4 | C[C@@H]1[C@H]2C3=CC[C@@H]4[C@@]5(C)C[C@@H](O)[C@H](O[C@@H]6OC[C@H](O)[C@H](O[C@@H]7OC[C@@H](O)[C@H](O)[C@H]7O)[C@H]6O)[C@@](C)(CO)[C@@H]5CC[C@@]4(C)[C@]3(C)CC[C@@]2(C(=O)O[C@@H]2O[C@H](CO[C@@H]3O[C@H](CO)[C@@H](O)[C@H](O)[C@H]3O)[C@@H](O)[C@H](O)[C@H]2O)CC[C@]1(C)O | inactive | inactive | Not Active
